Source: patent US20240293413A1, “COMPOUND AND METHOD FOR TREATING CHEMOTHERAPY-RELATED GASTROINTESTINAL SIDE EFFECTS” (ONQUALITY PHARMACEUTICALS CHINA LTD., priority 2021, published 2024)

Experiments:
Format in all cases: in vivo
[1] = tested on: diarrhea caused by a chemotherapeutic agent in Balb/c mice; assay: Examples 230-271 (Table 4): oral CDK inhibitor, relief of diarrhea caused by a chemotherapeutic agent; details: CDK inhibitor oral 150 mg/kg single, cycle 7 days
Excerpt: Balb/c mice were fed for 1 week, and then divided into groups. The experiment was divided into a control group, a chemotherapeutic agent group, and a CDK inhibitor group, each of which comprised 10 mice, to perform the administration experiment, for which the administration dosage, mode, time and frequency were shown in Table 4. The control group: being intragastrically administered with the same solvent as that used in the CDK inhibitor group (the time was shown in Table 4), and then being injected/intragastrically administered with the same solvent as that used in the chemotherapeutic agent group (the administration mode was shown in Table 4): the chemotherapeutic agent group: being intragastrically administered with the same solvent as that used in the CDK inhibitor group (the time was shown in Table 4), and then being injected/intragastrically administered with the chemotherapeutic agent (the type, administration mode and dosage were shown in Table 4): the CDK inhibitor group: being intragastrically administered with the CDK inhibitor (the time was shown in Table 4), and then being administered with the chemotherapeutic agent (the mode and dosage were shown in Table 4).
(§1) The diarrhea grading of mice was observed and recorded every day.

[2] = tested on: diarrhea caused by a chemotherapeutic agent in Balb/c mice; assay: Examples 382-405 (Table 7): various administration modes of the CDK inhibitor, relief of diarrhea caused by a chemotherapeutic agent; details: for Relative remission rate of oral administration: CDK inhibitor oral 150 mg/kg single
Excerpt: Balb/c mice were fed for 1 week, and then divided into groups. The experiment was divided into a control group, a chemotherapeutic agent group, CDK inhibitor groups (including an oral administration group of a CDK inhibitor, an intraperitoneal injection group of a CDK inhibitor, an intramuscular injection group of a CDK inhibitor, a local administration group of a CDK inhibitor), each of which comprised 10 mice, to perform the administration experiment, for which the administration dosage, mode, time and frequency were shown in Table 7. The control group: being administered with the same solvent as that used in the CDK inhibitor group (the time and mode were shown in Table 7), and then being injected/intragastrically administered with the same solvent as that used in the chemotherapeutic agent group (the administration mode was shown in Table 7): the chemotherapeutic agent group: being administered with the same solvent as that used in the CDK inhibitor group (the time and mode were shown in Table 7), and then being injected/intragastrically administered with the chemotherapeutic agent (the type, administration mode and dosage were shown in Table 7): the oral administration group of the CDK inhibitor: being intragastrically administered with the CDK inhibitor (the time was shown in Table 7), and then being administered with the chemotherapeutic agent (the mode and dosage were shown in Table 7): the intraperitoneal injection group of the CDK inhibitor: being intraperitoneally injected with the CDK inhibitor (the time was shown in Table 7), and then being administered with the chemotherapeutic agent (the mode and dosage were shown in Table 7): the intramuscular injection group of the CDK inhibitor: being intramuscularly injected with the CDK inhibitor (the time was shown in Table 7), and then being administered with the chemotherapeutic agent (the mode and dosage were shown in Table 7); and the local administration group of the CDK inhibitor: the hair on the abdomen of mice was shaved (about 2 cm*2 cm), being applied with the CDK inhibitor (the time was shown in Table 7), and then being administered with the chemotherapeutic agent (the mode and dosage were shown in Table 7).
as §1

[3] = tested on: diarrhea caused by a chemotherapeutic agent in Balb/c mice; assay: Examples 343-381 (Table 6): oral versus intravenous CDK inhibitor, relief of diarrhea caused by a chemotherapeutic agent;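 also: percent of treated mice whose diarrhea grade fell below chemotherapy-group average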
Excerpt: Balb/c mice were fed for 1 week, and then divided into groups. The experiment was divided into a control group, a chemotherapeutic agent group, and an oral administration group of a CDK inhibitor, and an intravenous injection group of a CDK inhibitor, each of which comprised 10 mice, to perform the administration experiment, for which the administration dosage, mode, time and frequency were shown in Table 6. The control group: being injected/intragastrically administered with the same solvent as that used in the CDK inhibitor group (the time was shown in Table 6), and then being injected/intragastrically administered with the same solvent as that used in the chemotherapeutic agent group (the administration mode was shown in Table 6): the chemotherapeutic agent group: being injected/intragastrically administered with the same solvent as that used in the CDK inhibitor group (the time was shown in Table 6), and then being injected/intragastrically administered with the chemotherapeutic agent (the type, administration mode and dosage were shown in Table 6): the oral administration group of the CDK inhibitor: being intragastrically administered with the CDK inhibitor (the time was shown in Table 6), and then being administered with the chemotherapeutic agent (the mode and dosage were shown in Table 6): the intravenous injection group of the CDK inhibitor: being injected with the CDK inhibitor through tail vein (the time was shown in Table 6), and then being administered with the chemotherapeutic agent (the mode and dosage were shown in Table 6).
as §1

## CCN1CCN(Cc2ccc(Nc3ncc(F)c(-c4cc(F)c5nc(C)n(C(C)C)c5c4)n3)nc2)CC1 [Abemaciclib]
[1]; Example 253, Methotrexate (MTX) intramuscular injection 300 mg/kg single, 8 h before
  Relative remission rate: 70%
[1]; Example 263, Vinorelbine (NVB) intravenous injection 10 mg/kg single, 0.5 h before
  Relative remission rate: 60%
[1]; Example 264, Vinorelbine (NVB) intravenous injection 10 mg/kg single, 4 h before
  Relative remission rate: 80%
[1]; Example 265, Vinorelbine (NVB) intravenous injection 10 mg/kg single, 8 h before
  Relative remission rate: 80%
[1]; Example 266, Vinorelbine (NVB) intravenous injection 10 mg/kg single, 12 h before
  Relative remission rate: 60%
[1]; Example 267, Vinorelbine (NVB) intravenous injection 10 mg/kg single, 24 h before
  Relative remission rate: 50%
[1]; Example 268, Vinorelbine (NVB) intravenous injection 10 mg/kg single, 48 h before
  Relative remission rate: 0%
[2]; Example 394, Carboplatin (CBP) intravenous injection 120 mg/kg single, CDK inhibitor intramuscular injection 150 mg/kg single, 8 h before, cycle 10 days
  Relative remission rate of other administration mode: 20%
[2]; Example 394, Carboplatin (CBP) intravenous injection 120 mg/kg single, 8 h before, cycle 10 days
  Relative remission rate of oral administration: 60%
[2]; Example 396, Gemcitabine (GEM) intraperitoneal injection 120 mg/kg single, CDK inhibitor intraperitoneal injection 150 mg/kg single, 0.5 h before, cycle 8 days
  Relative remission rate of other administration mode: 10%
[2]; Example 396, Gemcitabine (GEM) intraperitoneal injection 120 mg/kg single, 0.5 h before, cycle 8 days
  Relative remission rate of oral administration: 40%
[2]; Example 397, Gemcitabine (GEM) intraperitoneal injection 120 mg/kg single, CDK inhibitor intraperitoneal injection 150 mg/kg single, 4 h before, cycle 8 days
  Relative remission rate of other administration mode: 20%
[2]; Example 397, Gemcitabine (GEM) intraperitoneal injection 120 mg/kg single, 4 h before, cycle 8 days
  Relative remission rate of oral administration: 50%
[2]; Example 398, Gemcitabine (GEM) intraperitoneal injection 120 mg/kg single, CDK inhibitor intraperitoneal injection 150 mg/kg single, 8 h before, cycle 8 days
  Relative remission rate of other administration mode: 30%
[2]; Example 398, Gemcitabine (GEM) intraperitoneal injection 120 mg/kg single, 8 h before, cycle 8 days
  Relative remission rate of oral administration: 60%
[2]; Example 399, Gemcitabine (GEM) intraperitoneal injection 120 mg/kg single, CDK inhibitor intraperitoneal injection 150 mg/kg single, 12 h before, cycle 8 days
  Relative remission rate of other administration mode: 30%
[2]; Example 399, Gemcitabine (GEM) intraperitoneal injection 120 mg/kg single, 12 h before, cycle 8 days
  Relative remission rate of oral administration: 60%
[2]; Example 400, Gemcitabine (GEM) intraperitoneal injection 120 mg/kg single, CDK inhibitor intraperitoneal injection 150 mg/kg single, 24 h before, cycle 8 days
  Relative remission rate of other administration mode: 10%
[2]; Example 400, Gemcitabine (GEM) intraperitoneal injection 120 mg/kg single, 24 h before, cycle 8 days
  Relative remission rate of oral administration: 40%
[3]; Example 364, Carboplatin (CBP) intramuscular injection 150 mg/kg single, CDK inhibitor intravenous injection 150 mg/kg single, 8 h before, cycle 10 days
  Relative remission rate: 20%
[3]; Example 364, Carboplatin (CBP) intramuscular injection 150 mg/kg single, CDK inhibitor oral 150 mg/kg single, 8 h before, cycle 10 days
  Relative remission rate: 50%
[3]; Example 371, Gemcitabine (GEM) intraperitoneal injection 120 mg/kg single, CDK inhibitor intravenous injection 150 mg/kg single, 0.5 h before, cycle 8 days
  Relative remission rate: 10%
[3]; Example 371, Gemcitabine (GEM) intraperitoneal injection 120 mg/kg single, CDK inhibitor oral 150 mg/kg single, 0.5 h before, cycle 8 days
  Relative remission rate: 30%
[3]; Example 372, Gemcitabine (GEM) intraperitoneal injection 120 mg/kg single, CDK inhibitor intravenous injection 150 mg/kg single, 4 h before, cycle 8 days
  Relative remission rate: 10%
[3]; Example 372, Gemcitabine (GEM) intraperitoneal injection 120 mg/kg single, CDK inhibitor oral 150 mg/kg single, 4 h before, cycle 8 days
  Relative remission rate: 30%
[3]; Example 373, Gemcitabine (GEM) intraperitoneal injection 120 mg/kg single, CDK inhibitor intravenous injection 150 mg/kg single, 8 h before, cycle 8 days
  Relative remission rate: 20%
[3]; Example 373, Gemcitabine (GEM) intraperitoneal injection 120 mg/kg single, CDK inhibitor oral 150 mg/kg single, 8 h before, cycle 8 days
  Relative remission rate: 50%
[3]; Example 374, Gemcitabine (GEM) intraperitoneal injection 120 mg/kg single, CDK inhibitor intravenous injection 150 mg/kg single, 12 h before, cycle 8 days
  Relative remission rate: 20%
[3]; Example 374, Gemcitabine (GEM) intraperitoneal injection 120 mg/kg single, CDK inhibitor oral 150 mg/kg single, 12 h before, cycle 8 days
  Relative remission rate: 50%
[3]; Example 375, Gemcitabine (GEM) intraperitoneal injection 120 mg/kg single, CDK inhibitor intravenous injection 150 mg/kg single, 24 h before, cycle 8 days
  Relative remission rate: 10%
[3]; Example 375, Gemcitabine (GEM) intraperitoneal injection 120 mg/kg single, CDK inhibitor oral 150 mg/kg single, 24 h before, cycle 8 days
  Relative remission rate: 40%
